The structures appear in SMILES notation. pIC50: −log10 of the molar value.

T1 sequence (Q9Y5Y9 whole entry): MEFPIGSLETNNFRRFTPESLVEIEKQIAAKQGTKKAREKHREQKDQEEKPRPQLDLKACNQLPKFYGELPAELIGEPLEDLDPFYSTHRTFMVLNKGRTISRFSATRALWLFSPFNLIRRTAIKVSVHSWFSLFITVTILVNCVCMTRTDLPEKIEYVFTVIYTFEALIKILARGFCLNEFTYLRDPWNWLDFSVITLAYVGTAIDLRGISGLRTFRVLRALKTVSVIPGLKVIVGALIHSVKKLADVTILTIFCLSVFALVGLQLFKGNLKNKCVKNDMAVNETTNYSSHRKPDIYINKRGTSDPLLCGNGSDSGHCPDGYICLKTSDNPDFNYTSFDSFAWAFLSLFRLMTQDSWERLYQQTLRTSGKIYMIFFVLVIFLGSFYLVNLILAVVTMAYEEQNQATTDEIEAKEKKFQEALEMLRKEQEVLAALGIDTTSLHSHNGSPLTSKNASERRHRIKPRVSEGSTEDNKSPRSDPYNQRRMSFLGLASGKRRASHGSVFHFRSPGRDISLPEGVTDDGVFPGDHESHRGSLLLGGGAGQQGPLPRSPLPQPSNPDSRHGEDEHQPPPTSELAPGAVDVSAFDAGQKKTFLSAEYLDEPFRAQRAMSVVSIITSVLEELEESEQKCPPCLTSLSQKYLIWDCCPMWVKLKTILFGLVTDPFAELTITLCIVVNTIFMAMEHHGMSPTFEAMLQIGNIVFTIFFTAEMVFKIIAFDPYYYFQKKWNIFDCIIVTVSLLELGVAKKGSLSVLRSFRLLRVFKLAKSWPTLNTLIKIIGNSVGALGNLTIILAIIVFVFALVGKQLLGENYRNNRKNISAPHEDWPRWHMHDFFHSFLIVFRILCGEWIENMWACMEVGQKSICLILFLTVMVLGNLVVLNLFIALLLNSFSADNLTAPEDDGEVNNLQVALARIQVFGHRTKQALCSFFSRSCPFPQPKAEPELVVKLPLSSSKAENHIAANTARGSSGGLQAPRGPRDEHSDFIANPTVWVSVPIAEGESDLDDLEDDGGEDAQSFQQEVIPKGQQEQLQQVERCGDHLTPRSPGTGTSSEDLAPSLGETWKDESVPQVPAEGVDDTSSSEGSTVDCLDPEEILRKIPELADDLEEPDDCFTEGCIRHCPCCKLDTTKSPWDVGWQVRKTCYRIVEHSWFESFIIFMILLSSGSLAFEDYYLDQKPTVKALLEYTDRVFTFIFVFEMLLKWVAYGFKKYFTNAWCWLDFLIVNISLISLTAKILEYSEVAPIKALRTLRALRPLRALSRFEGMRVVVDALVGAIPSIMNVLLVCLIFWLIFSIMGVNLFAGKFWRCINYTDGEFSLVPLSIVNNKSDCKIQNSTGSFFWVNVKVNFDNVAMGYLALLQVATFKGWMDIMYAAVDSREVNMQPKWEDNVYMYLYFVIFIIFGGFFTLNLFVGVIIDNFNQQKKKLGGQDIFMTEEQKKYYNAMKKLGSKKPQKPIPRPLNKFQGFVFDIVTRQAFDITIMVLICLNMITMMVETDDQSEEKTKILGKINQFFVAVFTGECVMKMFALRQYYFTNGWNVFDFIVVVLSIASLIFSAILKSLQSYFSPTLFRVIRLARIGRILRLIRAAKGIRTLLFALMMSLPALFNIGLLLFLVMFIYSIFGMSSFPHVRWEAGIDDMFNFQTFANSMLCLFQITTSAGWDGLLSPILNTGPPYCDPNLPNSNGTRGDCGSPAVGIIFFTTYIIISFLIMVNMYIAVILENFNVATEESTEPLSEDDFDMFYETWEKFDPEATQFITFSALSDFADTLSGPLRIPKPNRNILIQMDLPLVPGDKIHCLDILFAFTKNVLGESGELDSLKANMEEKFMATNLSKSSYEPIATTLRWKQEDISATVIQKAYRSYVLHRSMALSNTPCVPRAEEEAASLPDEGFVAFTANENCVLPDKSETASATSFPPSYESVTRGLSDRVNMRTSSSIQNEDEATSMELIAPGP

This assay has as its target T1, human Nav1.8 (hNav1.8) ion channel (Homo sapiens, UniProt Q9Y5Y9).
T1 construct: expressed in transfected cells; host or cells: HEK293
The assay can be described thus: Nav1.8 channel inhibition, estimated IC50 (one or more of: fluorescence inhibition assay, PatchXpress, IonFlux HT automated patch clamp). The class given is cell-based. The settings on record: HEK293 cells stably expressing hNav1.8; method used per compound not stated; read-out: Activity range (estimated IC50). The essentials: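 HEK293 cells stably expressing hNav1.8 with β1/β2 subunits; IC50 from the fluorescence assay and/or automated whole-cell patch clamp (PatchXpress, IonFlux HT). Fluorescence: ANG-2 Na dye, 5 min compound preincubation (0.02–5 μM, 1% DMSO) with 30 μM ouabain, stimulation by 10 μM deltamethrin, peak signal fit logistically. PatchXpress: holding potential reset to Vhalf, inhibition normalized to control/washout currents.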
`CS(=O)(=O)c1cccc(NC(=O)c2cc(C(F)(F)F)cnc2Oc2ccc(OC(F)(F)F)cc2Cl)c1` [Example 142, 2-[2-chloro-4-(trifluoromethoxy)phenoxy]-N-(3-methylsulfonylphenyl)-5-(trifluoromethyl)pyridine-3-carboxamide]: the pIC50 was > 6.30.

On to `CCS(=O)(=O)c1cccc(NC(=O)c2cc(C(F)(F)F)cnc2Oc2ccc(OC(F)(F)F)cc2Cl)c1` [Example 143, 2-[2-chloro-4-(trifluoromethoxy)phenoxy]-N-(3-ethylsulfonylphenyl)-5-(trifluoromethyl)pyridine-3-carboxamide], for which the pIC50 is 6.00 to 6.30. In the case of `CN=S(C)(=O)c1cccc(NC(=O)c2cc(C(F)(F)F)cnc2Oc2ccc(OC(F)(F)F)cc2Cl)c1` (centres unmarked) [Example 144, 2-[2-chloro-4-(trifluoromethoxy)phenoxy]-N-[3-(N,S-dimethylsulfonimidoyl)phenyl]-5-(trifluoromethyl)pyridine-3-carboxamide] it was > 6.30; in that of `N#Cc1cccc(NC(=O)c2cc(C(F)(F)F)cnc2Oc2ccc(OC(F)(F)F)cc2Cl)c1` [Example 146, 2-[2-chloro-4-(trifluoromethoxy)phenoxy]-N-(3-cyanophenyl)-5-(trifluoromethyl)pyridine-3-carboxamide], > 6.30.

In the case of `Cn1cc(NC(=O)c2cc(C(F)(F)F)cnc2Oc2ccc(OC(F)(F)F)cc2Cl)cn1` [Example 147, 2-[2-chloro-4-(trifluoromethoxy)phenoxy]-N-(1-methylpyrazol-4-yl)-5-(trifluoromethyl)pyridine-3-carboxamide], the pIC50 is > 6.30.

For `NC(=O)c1cccc(NC(=O)c2cc(C(F)(F)F)cnc2Oc2ccc(OC(F)(F)F)cc2Cl)c1` [Example 148, N-(3-carbamoylphenyl)-2-[2-chloro-4-(trifluoromethoxy)phenoxy]-5-(trifluoromethyl)pyridine-3-carboxamide], the negative logarithm of the IC50 (pIC50) was 6.00 to 6.30. In the case of `CC(=O)c1cccc(NC(=O)c2cc(C(F)(F)F)cnc2Oc2ccc(OC(F)(F)F)cc2Cl)c1` [Example 149, N-(3-acetylphenyl)-2-[2-chloro-4-(trifluoromethoxy)phenoxy]-5-(trifluoromethyl)pyridine-3-carboxamide] it was < 6.00.

In the case of `Cn1ccc(NC(=O)c2cc(C(F)(F)F)cnc2Oc2ccc(OC(F)(F)F)cc2Cl)cc1=O` [Example 150, 2-[2-chloro-4-(trifluoromethoxy)phenoxy]-N-(1-methyl-2-oxo-4-pyridyl)-5-(trifluoromethyl)pyridine-3-carboxamide], the pIC50 is > 6.30. For `CN(C)C(=O)c1cccc(NC(=O)c2cc(C(F)(F)F)cnc2Oc2ccc(OC(F)(F)F)cc2Cl)c1` [Example 151, 2-[2-chloro-4-(trifluoromethoxy)phenoxy]-N-[3-(dimethylcarbamoyl)phenyl]-5-(trifluoromethyl)pyridine-3-carboxamide], the pIC50 is > 6.30. For the compound `CS(=O)(=O)c1ccc(NC(=O)c2cc(C(F)(F)F)cnc2Oc2ccc(OC(F)(F)F)cc2Cl)cc1` [Example 152, 2-[2-chloro-4-(trifluoromethoxy)phenoxy]-N-(4-methylsulfonylphenyl)-5-(trifluoromethyl)pyridine-3-carboxamide], the pIC50 is > 6.30.

On to `CN(C)S(=O)(=O)c1cccc(NC(=O)c2cc(C(F)(F)F)cnc2Oc2ccc(OC(F)(F)F)cc2Cl)c1` [Example 154, 2-[2-chloro-4-(trifluoromethoxy)phenoxy]-N-[3-(dimethylsulfamoyl)phenyl]-5-(trifluoromethyl)pyridine-3-carboxamide], for which the pIC50 is < 6.00.

For `O=C(Nc1ccc(F)c(F)c1)c1cc(C(F)(F)F)cnc1Oc1ccc(OC(F)(F)F)cc1Cl` [Example 155, 2-[2-chloro-4-(trifluoromethoxy)phenoxy]-N-(3,4-difluorophenyl)-5-(trifluoromethyl)pyridine-3-carboxamide], the pIC50 is > 6.30. Take `COc1ccc(NC(=O)c2cc(C(F)(F)F)cnc2Oc2ccc(OC(F)(F)F)cc2Cl)cn1` [Example 156, 2-[2-chloro-4-(trifluoromethoxy)phenoxy]-N-(6-methoxy-3-pyridyl)-5-(trifluoromethyl)pyridine-3-carboxamide]: the pIC50 was 6.00 to 6.30. In the case of `O=C(Nc1cncnc1)c1cc(C(F)(F)F)cnc1Oc1ccc(OC(F)(F)F)cc1Cl` [Example 157, 2-[2-chloro-4-(trifluoromethoxy)phenoxy]-N-pyrimidin-5-yl-5-(trifluoromethyl)pyridine-3-carboxamide], the pIC50 is 6.00 to 6.30. The same measure for `O=C(Nc1cccc(CO)c1)c1cc(C(F)(F)F)cnc1Oc1ccc(OC(F)(F)F)cc1Cl` [Example 160, 2-[2-chloro-4-(trifluoromethoxy)phenoxy]-N-[3-(hydroxymethyl)phenyl]-5-(trifluoromethyl)pyridine-3-carboxamide]: > 6.30; for `O=C(Nc1ccnnc1)c1cc(C(F)(F)F)cnc1Oc1ccc(OC(F)(F)F)cc1Cl` [Example 161, 2-[2-chloro-4-(trifluoromethoxy)phenoxy]-N-pyridazin-4-yl-5-(trifluoromethyl)pyridine-3-carboxamide]: > 6.30; for `CS(=O)(=O)c1ccc(F)c(NC(=O)c2cc(C(F)(F)F)cnc2Oc2ccc(OC(F)(F)F)cc2Cl)c1` [Example 162, 2-[2-chloro-4-(trifluoromethoxy)phenoxy]-N-(2-fluoro-5-methylsulfonyl-phenyl)-5-(trifluoromethyl)pyridine-3-carboxamide]: > 6.30. Take `O=C(Nc1cccc(F)c1)c1cc(C(F)(F)F)cnc1Oc1ccc(OC(F)(F)F)cc1Cl` [Example 163, 2-[2-chloro-4-(trifluoromethoxy)phenoxy]-N-(3-fluorophenyl)-5-(trifluoromethyl)pyridine-3-carboxamide]: the pIC50 was < 6.00. As for `Cc1cc(NC(=O)c2cc(C(F)(F)F)cnc2Oc2ccc(OC(F)(F)F)cc2Cl)ccn1` [Example 164, 2-[2-chloro-4-(trifluoromethoxy)phenoxy]-N-(2-methyl-4-pyridyl)-5-(trifluoromethyl)pyridine-3-carboxamide], the pIC50 is > 6.30.

Turning to `O=C(Nc1ccnc(F)c1)c1cc(C(F)(F)F)cnc1Oc1ccc(OC(F)(F)F)cc1Cl` [Example 165, 2-[2-chloro-4-(trifluoromethoxy)phenoxy]-N-(2-fluoro-4-pyridyl)-5-(trifluoromethyl)pyridine-3-carboxamide], the pIC50 was > 6.30. Regarding `O=C(Nc1cnns1)c1cc(C(F)(F)F)cnc1Oc1ccc(OC(F)(F)F)cc1Cl` [Example 166, 2-[2-chloro-4-(trifluoromethoxy)phenoxy]-N-(thiadiazol-5-yl)-5-(trifluoromethyl)pyridine-3-carboxamide], the negative-log IC50 (pIC50) is 6.00 to 6.30. Consider `Cn1nccc1NC(=O)c1cc(C(F)(F)F)cnc1Oc1ccc(OC(F)(F)F)cc1Cl` [Example 167, 2-[2-chloro-4-(trifluoromethoxy)phenoxy]-N-(2-methylpyrazol-3-yl)-5-(trifluoromethyl)pyridine-3-carboxamide], for which the pIC50 was 6.00 to 6.30.

`Cc1ccc(S(C)(=O)=O)cc1NC(=O)c1cc(C(F)(F)F)cnc1Oc1ccc(OC(F)(F)F)cc1Cl` [Example 168, 2-[2-chloro-4-(trifluoromethoxy)phenoxy]-N-(2-methyl-5-methylsulfonyl-phenyl)-5-(trifluoromethyl)pyridine-3-carboxamide]: the negative-log IC50 (pIC50) was 6.00 to 6.30. `Cn1ncnc1NC(=O)c1cc(C(F)(F)F)cnc1Oc1ccc(OC(F)(F)F)cc1Cl` [Example 169, 2-[2-chloro-4-(trifluoromethoxy)phenoxy]-N-(2-methyl-1,2,4-triazol-3-yl)-5-(trifluoromethyl)pyridine-3-carboxamide]: the pIC50 was < 6.00.

Regarding `Cn1cnc(NC(=O)c2cc(C(F)(F)F)cnc2Oc2ccc(OC(F)(F)F)cc2Cl)n1` [Example 170, 2-[2-chloro-4-(trifluoromethoxy)phenoxy]-N-(1-methyl-1,2,4-triazol-3-yl)-5-(trifluoromethyl)pyridine-3-carboxamide], the pIC50 is < 6.00.

Turning to `CN=S(C)(=O)c1cccc(NC(=O)c2cc(C(F)(F)F)cnc2Oc2ccc(OC)cc2OC)c1` (centres unmarked) [Example 171, 2-(2,4-dimethoxyphenoxy)-N-[3-(N,S-dimethylsulfonimidoyl)phenyl]-5-(trifluoromethyl)pyridine-3-carboxamide], the pIC50 was > 6.30. `COc1ccc(Oc2ncc(C(F)(F)F)cc2C(=O)Nc2cccc(S(C)(=N)=O)c2)c(OC)c1` (centres unmarked) [Example 172, 2-(2,4-dimethoxyphenoxy)-N-[3(methylsulfonimidoyl)phenyl]-5-(trifluoromethyl)pyridine-3-carboxamide]: the pIC50 is > 6.30.

`COc1ccc(Oc2ncc(C(F)(F)F)cc2C(=O)Nc2ccnnc2)c(OC)c1` [Example 173, 2-(2,4-dimethoxyphenoxy)-N-pyridazin-4-yl-5-(trifluoromethyl)pyridine-3-carboxamide]: the pIC50 was < 6.00. In the case of `CS(=N)(=O)c1cccc(NC(=O)c2cc(C(F)(F)F)cnc2Oc2ccc(F)cc2F)c1` (centres unmarked) [Example 174, 2-(2,4-difluorophenoxy)-N-[3-(methylsulfonimidoyl)phenyl]-5-(trifluoromethyl)pyridine-3-carboxamide] it was > 6.30; in that of `CN=S(C)(=O)c1cccc(NC(=O)c2cc(C(F)(F)F)cnc2Oc2ccc(F)cc2F)c1` (centres unmarked) [Example 175, 2-(2,4-difluorophenoxy)-N-[3-(N,S-dimethylsulfonimidoyl)phenyl]-5(trifluoromethyl)pyridine-3-carboxamide], > 6.30. Regarding `O=C(Nc1ccnnc1)c1cc(C(F)(F)F)cnc1Oc1ccc(F)cc1F` [Example 176, 2-(2,4-difluorophenoxy)-N-pyridazin-4-yl-5-(trifluoromethyl)pyridine-3-carboxamide], the pIC50 was < 6.00.

For `COc1cc(F)ccc1Oc1nc(C)c(C#N)cc1C(=O)Nc1cccc(S(C)(=O)=O)c1` [Example 177, 5-cyano-2-(4-fluoro-2-methoxy-phenoxy)-6-methyl-N-(3-methylsulfonylphenyl)pyridine-3-carboxamide], the pIC50 was 6.00 to 6.30.

Values taken from patent US12234221B2, “Pyridine carboxamide compounds for inhibiting NAV1.8” (Lieber Institute, Inc., priority 2018, dated 2025).
